Data from patent publication US8618094B2, “Fused substituted aminopyrrolidine derivative” (Daiichi Sankyo Company, Limited, priority 2007, dated 2013).
Structures can show the parent of a compound that is named as a salt.

A melting point of 179 to 181 °C was found for `COc1c(N2C[C@H]3[C@H](F)CC[C@@]3(N)C2)c(F)cc2c(=O)c(C(=O)O)cn([C@@H]3C[C@@H]3F)c12` [Example 20, 7-{(1S,5R,6R)-1-Amino-6-fluoro-3-azabicyclo[3,3,0]octan-3-yl}-6-fluoro-1-[(1R,2S)-2-fluorocyclopropyl]-1,4-dihydro-8-methoxy-4-oxoquinoline-3-carboxylic acid] in this work. A melting point of 122 to 124 °C was found for `C[C@H]1C[C@@]2(N)CN(c3c(F)cc4c(=O)c(C(=O)O)cn5c4c3OC[C@@H]5C)C[C@@H]12` [Example 3, 10-{(1S,5R,6S)-1-Amino-6-methyl-3-azabicyclo[3.2.0]hept-3-yl}-9-fluoro-2,3-dihydro-3-(S)-methyl-7-oxo-7H-pyrido[1,2,3-de][1, 4]benzoxazine-6-carboxylic acid] in this work. A melting point of 122 to 125 °C was found for `COc1c(N2C[C@H]3C(CF)C[C@@]3(N)C2)c(F)cc2c(=O)c(C(=O)O)cn([C@@H]3C[C@@H]3F)c12` (single isomer, unassigned) [Example 49] in this work. A melting point of 201 to 202 °C was found for `COc1c(N2C[C@H]3COC[C@@]3(N)C2)c(F)cc2c(=O)c(C(=O)O)cn([C@@H]3C[C@@H]3F)c12` [Example 59, 7-[(3aS)-3a-Aminotetrahydrofuro[3,4-c]pyrrol-5-yl]-6-fluoro-1-[(1R,2S)-2-fluorocyclopropyl]-1,4-dihydro-8-methoxy-4-oxoquinoline-3-carboxylic acid] in this work. A melting point of 123 to 125 °C was found for `COc1c(N2CC3(C)CCC3(N)C2)c(F)cc2c(=O)c(C(=O)O)cn([C@@H]3C[C@@H]3F)c12` (stereo in doubt) [Example 7, 7-[(1R,5S)-1-Amino-5-methyl-3-azabicyclo[3.2.0]hept-3-yl]-6-fluoro-1-[(1R,2S)-2-fluorocyclopropyl]-1,4-dihydro-8-methoxy-4-oxoquinoline-3-carboxylic acid] in this work. A melting point of 239 to 241 °C was found for `COc1c(N2C[C@H]3C(F)(F)CC[C@@]3(N)C2)c(F)cc2c(=O)c(C(=O)O)cn([C@@H]3C[C@@H]3F)c12` [Example 22, 7-[(1S,5R)-1-Amino-6,6-difluoro-3-azabicyclo[3,3,0]octan-3-yl]-6-fluoro-1-[(1R,2S)-2-fluorocyclopropyl]-1,4-dihydro-8-methoxy-4-oxoquinoline-3-carboxylic acid] in this work. For `Cc1c(N2C[C@]3(N)CC[C@]3(F)C2)c(F)cc2c(=O)c(C(=O)O)cn([C@@H]3C[C@@H]3F)c12` [Example 56, 7-{(1R,5S)-1-Amino-5-fluoro-3-azabicyclo[3.2.0]heptan-3-yl}-6-fluoro-1-[(1R,2S)-2-fluorocyclopropan-1-yl]-8-methyl-4-oxo-1,4-dihydroquinoline-3-carboxylic acid], the melting point was > 272 °C (dec.). A melting point of 117 to 119 °C was found for `COc1c(N2C[C@H]3[C@@H](F)CC[C@@]3(N)C2)c(F)cc2c(=O)c(C(=O)O)cn([C@@H]3C[C@@H]3F)c12` [Example 21, 7-[(1S,5R,6S)-1-Amino-6-fluoro-3-azabicyclo[3,3,0]octan-3-yl]-6-fluoro-1-[(1R,2S)-2-fluorocyclopropyl]-1,4-dihydro-8-methoxy-4-oxoquinoline-3-carboxylic acid] in this work. For `Cc1c(N2CC3(N)CCC4CC43C2)ccc2c(=O)c(C(=O)O)cn([C@@H]3C[C@@H]3F)c12` (single isomer, unassigned) [Example 55], the melting point was > 254 °C (dec.). With `N#Cc1c(N2C[C@]3(N)CCC[C@]3(F)C2)c(F)cc2c(=O)c(C(=O)O)cn([C@@H]3C[C@@H]3F)c12` [Example 14, 7-[(1R,5S)-1-Amino-5-fluoro-3-azabicyclo[3.3.0]octan-3-yl]-8-cyano-6-fluoro-1-[(1R,2S)-2-fluorocyclopropan-1-yl]-1,4-dihydro-4-oxoquinoline-3-carboxylic acid] the melting point was 268 to 280 °C (dec.). A melting point of 171 to 174 °C was found for `COc1c(N2C[C@@H]3CCC[C@]3(N)C2)c(F)cc2c(=O)c(C(=O)O)cn([C@@H]3C[C@@H]3F)c12` (relative stereo) [Example 12, 7-[(1R*,5S*)-1-Amino-3-azabicyclo[3.3.0]octan-3-yl]-6-fluoro-1-[(1R,2S)-2-fluorocyclopropyl]-8-methoxy-1,4-dihydro-4-oxoquinoline-3-carboxylic acid] in this work. With `COc1c(N2C[C@]3(N)CC[C@]3(F)C2)c(F)cc2c(=O)c(C(=O)O)cn([C@@H]3C[C@@H]3F)c12` [Example 6, 7-[(1R,5S)-1-Amino-5-fluoro-3-azabicyclo[3.2.0]hept-3-yl]-6-fluoro-1-[(1R,2S)-2-fluorocyclopropyl]-1,4-dihydro-8-methoxy-4-oxoquinoline-3-carboxylic acid] the melting point was 235 °C (dec.). A melting point of 161 to 163 °C was found for `COc1c(N2CC3(Cl)CCC[C@@]3(N)C2)c(F)cc2c(=O)c(C(=O)O)cn([C@@H]3C[C@@H]3F)c12` (stereo in doubt) [Example 53, 7-[(1R,5R)-1-Amino-5-chloro-3-azabicyclo[3.3.0]octan-3-yl]-6-fluoro-1-[(1R,2S)-2-fluorocyclopropan-1-yl]-1,4-dihydro-8-methoxy-4-oxoquinoline-3-carboxylic acid] in this work. A melting point of 202 to 204 °C was found for `COc1c(N2CC3(N)CCC4CC43C2)c(F)cc2c(=O)c(C(=O)O)cn([C@@H]3C[C@@H]3F)c12` (stereo partly drawn) (as salt: methanesulfonate) [Example 57, 7-[6-amino-8-azatricyclo[4.3.0.0^1,3]nonan-8-yl]-6-fluoro-1-[(1R,2S)-2-fluorocyclopropan-1-yl]-8-methoxy-4-oxo-1,4-dihydroquinoline-3-carboxylic acid methanesulfonate] in this work. A melting point of 193 to 195 °C was found for `COc1c(N2C[C@H]3C(CF)C[C@@]3(N)C2)c(F)cc2c(=O)c(C(=O)O)cn([C@@H]3C[C@@H]3F)c12` (single isomer, unassigned) [Example 50] in this work. A melting point of 145 to 149 °C was found for `Cc1c(N2CC3(N)CCC4CC43C2)c(F)cc2c(=O)c(C(=O)O)cn([C@@H]3C[C@@H]3F)c12` (single isomer, unassigned) [Example 54] in this work. A melting point of 158 to 160 °C was found for `Cc1c(N2C[C@H]3CCOC[C@@]3(N)C2)c(F)cc2c(=O)c(C(=O)O)cn([C@@H]3C[C@@H]3F)c12` [Example 41, 7-[(1S,6R)-1-Amino-3-oxa-8-azabicyclo[4,3,0]nonan-8-yl]-6-fluoro-1-[(1R,2S)-2-fluorocyclopropyl]-1,4-dihydro-8-methyl-4-oxoquinoline-3-carboxylic acid] in this work. A melting point of 130 to 133 °C was found for `Cc1c(N2C[C@H]3C(CF)C[C@@]3(N)C2)c(F)cc2c(=O)c(C(=O)O)cn([C@@H]3C[C@@H]3F)c12` (single isomer, unassigned) [Example 51] in this work. A melting point of over 300 °C was found for `C[C@H]1COc2c(N3C[C@@H]4CCOC[C@@]4(N)C3)c(F)cc3c(=O)c(C(=O)O)cn1c23` [Example 42, 10-[(1S,6S)-1-Amino-3-oxa-8-azabicyclo[4,3,0]nonan-8-yl]-9-fluoro-2,3-dihydro-3-methyl-(S)-7-oxo-7H-pyrido[1,2,3-de][1,4]benzoxazine-6-carboxylic acid] in this work. For `C[C@H]1COc2c(N3C[C@]4(N)CCC[C@]4(F)C3)c(F)cc3c(=O)c(C(=O)O)cn1c23` [Example 13, 10-[(1R,5S)-1-Amino-5-fluoro-3-azabicyclo[3.3.0]octan-3-yl]-9-fluoro-2,3-dihydro-3-(S)-methyl-7-oxo-7H-pyrido[1,2,3-de][1,4]benzoxazine-6-carboxylic acid], the melting point was 285 to 293 °C (dec.).
